Reference: ChEMBL document CHEMBL1201862, “PubChem BioAssay data set” (2004)
Calls of active or inactive are those of the source.

Key:
[1] = Luminescence Cell-Based Dose Response HTS to Identify Inhibitors of 5'UTR Stem-Loop Driven Prion Protein mRNA Translation in H4 Neuroglioblastoma Cells. [Related pubchem assays: 1827 (Project Summary), 1813 (Primary HTS)]; type: functional
[2] = inhibitors of clade B AD8 Env fusion, dose response, cell-based, cherry-pick (AID 652062); type: functional;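 note: luciferase signal from cell-cell fusion driven by HIV-1 clade B AD8 Env; potency is for inhibitors of fusion seen as a drop in luminescence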
[3] = ZM109 Env clade C HIV-1 fusion inhibitors, dose response, HeLa effector, CEM target cells, luciferase, cherry-pick (AID 652058); type: functional, cell-based
[4] = Luminescence Cell-Based Dose Retest to Confirm Inhibitors of Cancer Stem Cells. [Related pubchem assays (depositor defined):AID2717, AID2721]; type: functional; conditions: Homo sapiens
[5] = inhibitors of firefly luciferase expression or activity, dose response, H4 neuroglioma cells, luminescence (AID 1990); type: functional, cell-based
[6] = off-target signal loss in HeLa-CEM21 co-culture – HeLa F-luc CTL cells, cherry-picked, counter-screen for HIV-1 Env fusion inhibitor project, dose response (AID 652040); type: functional, cell-based;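 note: potency for signal decrease marking cytotoxic or nonspecific inhibition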
[7] = test system: HEK293; assay: inhibitors of LMP1-driven NF-kB reporter, dose response, cell-based, HEK293, luciferase, cherry-pick (AID 588343); type: functional; conditions: Homo sapiens
[8] = inhibitors of SNCA 5'UTR-driven reporter translation, confirmation, H4 neuroglioma cells, luminescence (AID 1988); type: functional, cell-based
[9] = test system: INS1; assay: beta cell apoptosis inhibitors, cytokine rescue, dose response, luminescence, retest (AID 449756); type: functional, cell-based; conditions: Rattus norvegicus;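 note: cell death triggered by IL-1 beta plus TNF-alpha plus IFN-gamma mixture; protective hits raise ATP signal compared with cytokine alone wells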
[10] = molecular target: Paired box protein Pax-8 (Homo sapiens, UniProt Q06710); assay: inhibitors of PAX8-driven TPO luciferase reporter, dose response, RMG-I cells, cherry-pick (AID 687027); type: functional, cell-based;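 note: luciferase reporter driven by Pax8 target thyroperoxidase promoter measured by SteadyGlo luminescence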
Paired box protein Pax-8, sequence (Q06710 whole entry): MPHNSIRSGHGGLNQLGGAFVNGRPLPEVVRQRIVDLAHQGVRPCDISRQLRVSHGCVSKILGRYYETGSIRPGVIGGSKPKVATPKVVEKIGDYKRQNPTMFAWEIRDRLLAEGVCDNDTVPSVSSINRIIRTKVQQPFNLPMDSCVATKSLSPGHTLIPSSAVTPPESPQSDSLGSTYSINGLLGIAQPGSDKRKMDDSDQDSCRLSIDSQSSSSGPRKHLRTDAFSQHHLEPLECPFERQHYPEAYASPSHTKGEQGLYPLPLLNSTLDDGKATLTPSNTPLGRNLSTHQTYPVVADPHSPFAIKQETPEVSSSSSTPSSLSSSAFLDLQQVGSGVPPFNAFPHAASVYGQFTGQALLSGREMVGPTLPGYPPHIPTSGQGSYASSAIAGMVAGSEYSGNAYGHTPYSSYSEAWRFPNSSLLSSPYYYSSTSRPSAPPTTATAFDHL

[11] = microbe, parasite or virus in culture; type: functional; conditions: Mycobacterium tuberculosis
[12] = CEM21 lymphoblast cell cytotoxicity, dose response, cytotoxicity control for viral fusion inhibitor project, CellTiter-Glo luminescence, cherry-picked (AID 652042); type: functional, cell-based;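 note: potency for signal decrease meaning cytotoxicity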
[13] = inhibitors of HIV Env-driven cell fusion, dose response, cherry-pick (AID 652057); type: functional, cell-based
[14] = cells; type: functional
[15] = A549 cell cytotoxicity, dose response, cytotoxicity control, plate reader, cherry-pick, antagonist series (AID 743412); type: functional, cell-based
[16] = HepG2 cell cytotoxicity, dose response, cytotoxicity control, plate reader, cherry-pick, antagonist series (AID 743416); type: functional, cell-based
[17] = HEK293 cell cytotoxicity, dose response, cytotoxicity control, plate reader, cherry-picked samples (AID 743446); type: functional, cell-based
[18] = Luminescence Cell-Based Dose Confirmation HTS to Identify Inhibitors of Platelet Dense Granule Release. [Related pubchem assays: 1663 (Primary HTS), 1678 (Summary of Project)]; type: functional
[19] = Vero E6 cell cytotoxicity, dose response, cytotoxicity control for non-replicating M. tuberculosis project, secondary assay (AID 492998); type: functional, VeroE6; conditions: Vero C1008
[20] = MC4R antagonists, dose response, counter-screen for LGR2 antagonist project, cell-based, plate reader, cherry pick (AID 743444); type: functional;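 note: transfected HEK 293 cells stimulated with alpha-MSH peptide; potency of inhibitors of the alpha-MSH evoked signal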
[21] = THP-1 cell cytotoxicity, dose response, cytotoxicity control for non-replicating M. tuberculosis project (AID 489025); type: functional
[22] = molecular target: Luciferin 4-monooxygenase (Photinus pyralis, UniProt P08659); assay: firefly luciferase enzyme inhibitors, dose response, biochemical, luminescence (AID 1891)
Luciferin 4-monooxygenase, sequence (P08659 whole entry): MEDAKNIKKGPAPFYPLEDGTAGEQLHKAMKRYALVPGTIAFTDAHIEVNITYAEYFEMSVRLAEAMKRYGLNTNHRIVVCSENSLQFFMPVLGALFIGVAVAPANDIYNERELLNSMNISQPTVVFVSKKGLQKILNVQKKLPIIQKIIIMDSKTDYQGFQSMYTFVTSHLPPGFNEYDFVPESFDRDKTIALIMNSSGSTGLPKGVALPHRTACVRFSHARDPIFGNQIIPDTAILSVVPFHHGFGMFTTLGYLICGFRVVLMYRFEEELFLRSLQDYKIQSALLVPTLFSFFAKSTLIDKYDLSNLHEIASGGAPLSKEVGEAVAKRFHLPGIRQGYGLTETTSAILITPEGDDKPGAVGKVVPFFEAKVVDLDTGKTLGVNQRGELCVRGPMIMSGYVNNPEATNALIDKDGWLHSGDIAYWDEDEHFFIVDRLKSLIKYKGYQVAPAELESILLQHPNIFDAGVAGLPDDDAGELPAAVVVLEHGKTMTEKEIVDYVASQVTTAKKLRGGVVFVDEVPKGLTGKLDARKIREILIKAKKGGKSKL

[23] = LGR2 antagonists, dose response, cell-based, HEK293, CRE-luciferase reporter, cherry pick, set 2 (AID 743343); type: functional;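 note: transfected cells were stimulated with diluted bursicon conditioned medium after compound addition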
[24] = molecular target: 5-hydroxytryptamine receptor 2A (Mus musculus, UniProt P35363); type: functional, cell-based;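 note: CHO-K1 cells with tagged receptor and beta-arrestin; agonist potency measured as compound-induced activation of the receptor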
5-hydroxytryptamine receptor 2A, sequence (P35363 whole entry): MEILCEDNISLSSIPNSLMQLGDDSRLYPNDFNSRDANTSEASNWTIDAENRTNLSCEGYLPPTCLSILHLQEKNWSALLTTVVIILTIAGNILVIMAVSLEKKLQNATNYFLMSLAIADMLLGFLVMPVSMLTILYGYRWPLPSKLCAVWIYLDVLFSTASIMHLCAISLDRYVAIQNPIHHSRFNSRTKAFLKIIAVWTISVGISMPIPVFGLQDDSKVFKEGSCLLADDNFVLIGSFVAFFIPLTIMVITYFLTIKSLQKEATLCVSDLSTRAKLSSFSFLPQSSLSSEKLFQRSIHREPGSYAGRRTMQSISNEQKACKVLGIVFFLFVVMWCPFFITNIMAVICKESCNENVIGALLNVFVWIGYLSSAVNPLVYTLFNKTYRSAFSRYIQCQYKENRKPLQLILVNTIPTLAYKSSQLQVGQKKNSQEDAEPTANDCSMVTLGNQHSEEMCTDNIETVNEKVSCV

[25] = molecular target: Mu-type opioid receptor (Homo sapiens, UniProt P35372); type: functional, cell-based;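 note: U2OS cells with beta-arrestin recruitment to OPRM1 by beta-gal complementation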
Mu-type opioid receptor, sequence (P35372 whole entry): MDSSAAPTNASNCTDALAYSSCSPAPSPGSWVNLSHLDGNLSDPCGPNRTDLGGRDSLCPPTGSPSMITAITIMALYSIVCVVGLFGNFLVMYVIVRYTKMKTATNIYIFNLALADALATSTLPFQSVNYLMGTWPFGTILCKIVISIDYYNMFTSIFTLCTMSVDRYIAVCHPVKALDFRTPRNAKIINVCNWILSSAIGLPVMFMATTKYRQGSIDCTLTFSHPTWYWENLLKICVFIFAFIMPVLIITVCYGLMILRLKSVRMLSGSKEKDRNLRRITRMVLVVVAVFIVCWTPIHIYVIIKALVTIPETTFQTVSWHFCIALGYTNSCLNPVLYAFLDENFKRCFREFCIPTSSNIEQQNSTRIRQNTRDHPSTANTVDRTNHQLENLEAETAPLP

[26] = molecular target: T1, Coagulation factor XII (Homo sapiens, UniProt P00748); type: functional;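 note: activated factor XIIa alpha cleaving a fluorogenic AMC peptide substrate; inhibitor potency from loss of enzyme activity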
T1 sequence (P00748 whole entry): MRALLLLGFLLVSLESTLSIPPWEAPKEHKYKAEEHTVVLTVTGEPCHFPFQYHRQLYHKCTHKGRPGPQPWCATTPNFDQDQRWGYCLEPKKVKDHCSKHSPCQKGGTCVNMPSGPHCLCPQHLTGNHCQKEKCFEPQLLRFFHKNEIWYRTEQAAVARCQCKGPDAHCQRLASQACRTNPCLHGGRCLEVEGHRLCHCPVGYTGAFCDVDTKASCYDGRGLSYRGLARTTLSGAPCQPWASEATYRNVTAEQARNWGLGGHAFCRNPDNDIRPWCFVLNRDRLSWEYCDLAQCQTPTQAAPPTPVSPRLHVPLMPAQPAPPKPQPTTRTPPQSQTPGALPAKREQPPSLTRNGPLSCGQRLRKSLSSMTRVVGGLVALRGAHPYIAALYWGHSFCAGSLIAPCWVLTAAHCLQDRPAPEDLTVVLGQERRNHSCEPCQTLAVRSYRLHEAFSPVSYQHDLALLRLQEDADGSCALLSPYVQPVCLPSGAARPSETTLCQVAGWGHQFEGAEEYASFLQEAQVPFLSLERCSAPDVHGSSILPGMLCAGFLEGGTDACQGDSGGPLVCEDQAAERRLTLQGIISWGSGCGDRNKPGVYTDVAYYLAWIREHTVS

[27] = cells; type: functional, cell-based
[28] = molecular target: T2, Nuclear receptor subfamily 0 group B member 1 (Homo sapiens, UniProt P51843); type: functional, cell-based;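 note: HEK293T cells transfected with SF-1 and DAX-1 plus StAR promoter luciferase reporter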
T2 sequence (P51843 whole entry): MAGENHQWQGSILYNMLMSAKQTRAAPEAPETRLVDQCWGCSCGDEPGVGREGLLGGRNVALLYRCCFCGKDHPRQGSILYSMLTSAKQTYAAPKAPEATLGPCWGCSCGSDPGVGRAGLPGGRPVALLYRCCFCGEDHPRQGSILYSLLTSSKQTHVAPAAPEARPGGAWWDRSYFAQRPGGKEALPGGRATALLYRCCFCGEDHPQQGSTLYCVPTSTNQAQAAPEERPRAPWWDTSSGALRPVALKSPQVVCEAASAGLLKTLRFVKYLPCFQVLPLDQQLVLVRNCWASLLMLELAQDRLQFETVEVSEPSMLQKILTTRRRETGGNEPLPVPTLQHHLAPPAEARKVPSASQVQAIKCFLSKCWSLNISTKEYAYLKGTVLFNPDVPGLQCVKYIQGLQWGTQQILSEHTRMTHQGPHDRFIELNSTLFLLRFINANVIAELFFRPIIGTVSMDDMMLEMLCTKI

[29] = C. albicans growth with fluconazole, confirmation, fluorescence, retest (AID 2467); type: functional, cell-based
[30] = NIH-3T3 fibroblast cytotoxicity, dose response, cytotoxicity control, cell-based, fluorescence, Alamar Blue, secondary assay (AID 2327); type: functional;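 note: NIH-3T3 mouse fibroblasts cultured with fluconazole at 8 µg/mL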

CCN(CC)S(=O)(=O)c1cccc(NC(=O)Nc2cccc(C(F)(F)F)c2)c1
> 120 µM (not active): EC50 [1] | EC50 [5] | EC50 [8]
active: AC50 [2] 10.4 µM | AC50 [3] < 0.26 µM | AC50 [4] 3.36 µM | AC50 [6] 7.47 µM | AC50 [7] 21.4 µM | AC50 [9] 5.03 µM | AC50 [10] 14.9 µM | CC50 [11] 13.8 µM | AC50 [12] 13.6 µM | AC50 [13] 0.542 µM

Cc1cnc(NC(=O)c2ccccn2)s1
active: IC50 [14] 4.77 µM | AC50 [15] 24 µM | AC50 [16] 27.8 µM | AC50 [17] 30.8 µM | EC50 [18] 18 µM | CC50 [19] > 20 µM | AC50 [7] 8.48 µM | AC50 [20] 6.72 µM | CC50 [21] > 40 µM | EC50 [22] 34.9 µM | AC50 [23] 7.9 µM

O=C(CN1CCN(c2ccccn2)CC1)Nc1ccc(Oc2ccccc2)cc1
active: EC50 [24] 1.17 µM
inactive: EC50 [25] 92.4 µM | IC50 [26] > 50 µM

O=C(O)c1cc(/C=C/c2ccc(N3CCOCC3)cc2)nc2ccccc12
active: AC50 [7] 3.14 µM
inactive: IC50 [27] > 67.5 µM | IC50 [28] > 67.5 µM

CC(=O)Oc1ccc2c(=O)c(-c3nc4ccccc4s3)coc2c1
inactive: IC50 [27] > 67.5 µM | IC50 [28] > 67.5 µM | EC50 [30] > 150 µM
active: AC50 [4] 6.27 µM | EC50 [18] 3.83 µM | EC50 [22] 3.63 µM | EC50 [29] 3.08 µM

CCOCC(=O)NC1CCc2cc(OC(=O)COCC)c(OC)c(OC)c2-c2ccc(SC)c(=O)cc21 (stereo not given)
inactive: IC50 [27] > 67.5 µM
active: AC50 [10] < 0.26 µM | IC50 [28] 0.244 µM
